According to patent publication US20230147795A1, “COMPOSITION AND METHODS FOR PREVENTING RADIATION INJURY AND PROMOTING TISSUE REGENERATION” (FIRSTSTRING RESEARCH, INC., priority 2017, published 2023):
Residues, ends and D or L forms follow the SMILES beside them. *: point of attachment. Biotin = O=C1N[C@H]2[C@H](CS[C@H]2CCCCC(=O)*)N1; Ahx = NCCCCCC(=O)O

What was measured:
[1] = Stability study of ACT peptide in drug product gel; type: physicochemical; conditions: for ACT peptide remaining, % of the label claim (initial concentration): drug product with 1.25% hydroxyethylcellulose
Description: Derived through in vitro and in vivo studies, these stabilizers and excipients are incorporated into the drug product since they are non-irritating, non-staining, and non-immunogenic. […] The ACT peptide within the drug product containing 1.25% hydroxyethylcellulose only dropped to 98% of the label claim (i.e., initial concentration) when stored at 5° C. for three months and to 84% of the label claim when stored at 25° C. for the same duration. In one aspect of the invention, edetate disodium (EDTA) and Mannitol are incorporated within the drug product to provide stability to the ACT1 peptide. In some embodiments of the invention, the Mannitol is present in the formulation at 0.01% (w/w) to 1.6% (w/w), 0.01% (w/w) to 1.5% (w/w), 0.01% (w/w) to 1.4% (w/w), 0.01% (w/w) to 1.3% (w/w), 0.01% (w/w) to 1.2% (w/w), 0.01% (w/w) to 1.1% (w/w), 0.01% (w/w) to 1.0% (w/w), 0.01% (w/w) to 0.9% (w/w), 0.01% (w/w) to 0.8% (w/w), 0.01% (w/w) to 0.7% (w/w), 0.01% (w/w) to 0.6% (w/w), 0.01% (w/w) to 0.5% (w/w), 0.01% (w/w) to 0.4% (w/w), 0.01% (w/w) to 0.3% (w/w), 0.01% (w/w) to 0.2% (w/w), 0.01% (w/w) to 0.1% (w/w), or 0.01% (w/w) to 0.0.05% (w/w). In specific embodiments, the Mannitol is present in the formulation at about 0.05% (w/w).

[2] = tested on: C57BL/6 mice, partial body irradiation; experiment: GI-targeted murine partial body irradiation model, survival; type: in vivo, mouse; conditions: 10 mg/kg intraperitoneally daily from 24 hrs post exposure up to 21 days, preliminary
Text: In this study, C557BL/6 mice (n=40; 20 females and 20 males) were exposed to partial body irradiation by one dose exposure of […] at 50cGy/min using a 60 Co gamma source. A Farmer ionization chamber was used to provide real-time quantification of the radiation dose. Animals were irradiated in a custom designed restrainer where their left pelvic limb was extended and maintained in position to permit shielding with a cerrobend structure. This method of shielding 5% of bone marrow serves to rescue mice from hematopoietic syndromel. Initiating 24 hrs post exposure, animals were treated daily with 0.9% sodium chloride (vehicle) or 10 mg/kg ACTT 1 (ACT1 polypeptide) delivered intraperitoneally for up to 21 days. Half of the animals (subtracting those that died on days 1-7) were euthanized on day 8 to allow for histological examination of GI organs (histology results pending).

Row | ACT peptide remaining, % of the label claim (initial concentration) ([1]; stored at 5° C. for three months) [%] | ACT peptide remaining, % of the label claim (initial concentration) ([1]; stored at 25° C. for three months) [%] | Stability in Hydroxyethylcellulose, 250 HHX (1.25%) compared to Pluronic gels ([1]; gelling agent comparison) | Molecule | Survival / early mortality (Kaplan Maier analysis) compared to saline [2] | Survival / early mortality (Kaplan Maier analysis) compared to saline ([2]; listed as ACTI polypeptide)
1 | 98 | 84 | more stable | CC[C@H](C)[C@H](NC(=O)[C@H](CCC(=O)O)NC(=O)[C@H](CC(C)C)NC(=O)[C@H](CC(=O)O)NC(=O)[C@H](CC(=O)O)NC(=O)[C@@H]1CCCN1C(=O)[C@H](CCCNC(=N)N)NC(=O)[C@@H]1CCCN1C(=O)[C@H](CCCNC(=N)N)NC(=O)[C@H](CCCCN)NC(=O)[C@H](CCCCN)NC(=O)[C@H](Cc1c[nH]c2ccccc12)NC(=O)[C@@H]1CCCN1C(=O)[C@H](CCCCN)NC(=O)[C@H](CCCNC(=N)N)NC(=O)[C@H](CCCNC(=N)N)NC(=O)[C@H](CC(N)=O)NC(=O)[C@@H]1CCCN1C(=O)[C@H](Cc1ccccc1)NC(=O)[C@H](Cc1c[nH]c2ccccc12)NC(=O)[C@@H](NC(=O)[C@H](CCCCN)NC(=O)[C@@H]1CCCN1C(=O)[C@H](CCC(N)=O)NC(=O)[C@H](CCCNC(=N)N)NC(=O)CCCCCNC(=O)CCCC[C@@H]1SC[C@@H]2NC(=O)N[C@@H]21)[C@@H](C)CC)C(=O)O [Peptide 328967] ({Biotin-Ahx}-RQPKIWFPNRRKPWKKRPRPDDLEI-OH) |  | 
2 |  |  |  | RPRPDDLEI [ACT1 polypeptide] | has an early effect on animal mortality | increased survival
